System: Oats
Experiment: Glasshouse trial: adjuvant effect when applied with glyphosate to control oats
Format: in vivo
Conditions: no adjuvant, 14 days after treatment
Description: In this example, the adjuvant effect of Compositions C and D from Example 1 was compared with a range of commercially available adjuvants when applied with glyphosate in 2 water hardnesses to control oats in a glasshouse.

## O=C(O)CNCP(=O)(O)O [Glyphosate, glyphosate]
Glyphosate 50 g a.i./ha, water hardness 50 ppm CaCO3, oats 1.5-2 leaf
  Fresh Weight % of untreated control: 73 % of untreated control
Glyphosate 50 g a.i./ha, water hardness 300 ppm CaCO3
  Fresh Weight % of untreated control: 106 % of untreated control
Glyphosate 100 g a.i./ha, water hardness 50 ppm CaCO3
  Fresh Weight % of untreated control: 52 % of untreated control
Glyphosate 100 g a.i./ha, water hardness 300 ppm CaCO3
  Fresh Weight % of untreated control: 65 % of untreated control

From US8975214B2, “Emulsion adjuvant for herbicides” (Innovative Chemical Services Pty Ltd, priority 2010, dated 2015)
